Laboratory results published in patent US20220047596A1, “COMBINATION OF PARP INHIBITOR AND BRD4 INHIBITOR FOR THE TREATMENT OF CANCER” (Board of Regents, The University of Texas System, priority 2018, published 2022).

Key:
Type in all cases: cell-based, Human
[1] = test system: CtIP promoter and enhancer; experiment: ChIP-qPCR at CtIP promoter and enhancer; conditions: HOC1; 200 nM, 24 hr
Method: Chromatin Immunoprecipitation (ChIP-qPCR): ChIP assays were performed with EZ-Magna ChIP™ A/G Chromatin Immunoprecipitation Kit (Millipore Corp) as described in manufacturer's instructions. Briefly, cells were crosslinked with 1% formaldehyde. After cell lysis, isolated nuclei were subjected to sonication for chromatin fragmentation. Sheared chromatin was diluted in diluted buffer, and divided into aliquots for immunoprecipitation. Anti-BRD4 antibody (1:50, #13440S, Cell Signaling), anti-H3K27ac antibody (1:100, ab4729, Abcam), anti-H3K4M1 antibody (1:200, ab8895, Abcam), anti-Pol II antibody (1:100, sc-47701, Santa Cruz) or normal Rabbit IgG control (1:200, #2729, Cell Signaling) were added to chromatin samples, followed by overnight incubation at 4° C., with rotation. Antibody-chromatin complexes were captured using magnetic protein A/G beads. Purified DNAs were subjected to quantitative PCR (qPCR). All primers are list in Table 2.

HOC1 cells = experiment: RPA and RAD51 foci immunofluorescence
Method: Immunofluorescence Staining and Microscopy: Briefly, cells were washed with PBS and fixed with 4% paraformaldehyde for 5 min, followed by permeabilization with 0.5% NP-40 and 1% Triton X-100 for 10 min Cells were then blocked with 5% FBS for 30 min and incubated with primary antibody (anti-RAD51, PC130, 1:100; anti-g-H2AX (Ser139), clone JBW301, 1:1000 from Millipore Corp; anti-RPA32, ab2175, 1:500 from Abcam) for 2 hr, followed by secondary antibody incubation for 1 hr at room temperature. Slides were sealed in mounting medium containing DAPI (Vector Laboratories, H1200) for further image acquisition. TE-2000 imaging acquisition system (Nikon) equipped with a 60× objective lens was used to capture images. Stained was quantified by ImageJ.

cancer cell lines = experiment: Viability measurement (PrestoBlue, 96 hr) with CalcuSyn combination index
Method: Viability Measurements: Five thousand cells were seeded into sterile 96-well plates and treated with indicated drug combinations for 96 hr. DMSO was used as a vehicle. PrestoBlue® Cell Viability Reagent (Thermo Fisher Scientific) was used to assess cell viability. Background values from empty wells were subtracted and data normalized to vehicle-treated control. Synergistic effects between both compounds were calculated using the Chou-Talalay equation in CalcuSyn software, which takes into account both potency (IC50) and shape of the dose-effect curve. […], and CI>1 indicates antagonism.

Cc1sc2c(c1C)C(c1ccc(Cl)cc1)=N[C@@H](CC(=O)OC(C)(C)C)c1nnc(C)n1-2 [JQ1]
BRD4 association with the CtIP promoter and enhancer [1]: decreased | H3K27Ac, H3K4Me1 at the CtIP promoter and enhancer [1]: reduced | association of RNA Pol-II with the CtIP promoter and enhancer [1]: decreased association | RAD51 nuclear foci (HOC1 cells; after PARPi or IR, compared with vehicle): decreased RAD51 nuclear foci | RPA focus formation (HOC1 cells; in response to PARPi or IR): severely impaired | resensitization of PARPi-resistant cells to PARPi (cancer cell lines; A2780CP_R, OAW42_R and OC316_R): resensitized | PARPi resistance mediated by 53BP1 knockdown (cancer cell lines; BRCA1 knockdown MCF10A, BRCA1 mutant UWB1.289 and COV362 cells): reversed resistance
